Peptide text beside a SMILES is read from it. * marks the point of attachment. Palmitoyl = CCCCCCCCCCCCCCCC(=O)*
Legend:
[1] = molecular target: T1, PAR1 (Homo sapiens, UniProt P25116); experiment: ERK1/2 phosphorylation in A549 cells (thrombin or […]), Western blot; format: cell-based; set-up: endogenous in cells; host or cells: A549, HOP62, H1299, H522, H226, HOP92 lung carcinoma lines; settings: A549 cells; pepducin 0.1-3 μM
T1 sequence (P25116 22-425): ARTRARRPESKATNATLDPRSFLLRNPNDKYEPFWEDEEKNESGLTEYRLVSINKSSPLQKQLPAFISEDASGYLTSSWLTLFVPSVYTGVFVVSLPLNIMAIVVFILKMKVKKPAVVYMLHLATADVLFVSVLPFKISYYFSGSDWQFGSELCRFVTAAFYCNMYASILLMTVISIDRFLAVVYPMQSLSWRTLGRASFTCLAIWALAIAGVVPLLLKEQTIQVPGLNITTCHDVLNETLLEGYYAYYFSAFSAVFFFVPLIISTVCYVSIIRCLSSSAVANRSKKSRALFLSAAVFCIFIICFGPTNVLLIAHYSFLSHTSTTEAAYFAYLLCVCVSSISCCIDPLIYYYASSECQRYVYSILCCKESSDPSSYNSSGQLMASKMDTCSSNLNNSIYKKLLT
Description: FIG. 9 illustrates that differential inhibition of PAR1-ERK activation by i3- and i1-derived PAR1 pepducins. (A-C): Western blots of lysates from A549 cells untreated, or treated with thrombin, SLIGKV (SEQ ID NO:29), or AYPGKF (SEQ ID NO:5). Indicated samples were pretreated with various concentrations (0.1 to 3 μmol/L) of P1pal-7, P1pal-10S, or P1pal-i1-11 before stimulation and immunoblotted with anti-phospho-ERK. (D-F): Quantification of the Western blots in (A-C) were conducted by densitometry and results are expressed relative to maximum (fold max) phosphorylation of pERK.
(B): A549 cells stimulated with 10 μM […] over 2 h. A549 cells pretreated with 0.1 μM P1pal-7 and stimulated with 10 μM […] (SEQ ID NO:30) for 5 min. Total ERK was used as a loading control.
Last, there has been a great deal of interest in understanding the mechanism of PAR1-mediated activation of MAP kinase cascade and PAR1-dependent cellular growth and differentiation, proliferation and gene transcription. […] The effects of i1 versus i3 PAR1 pepducins on ERK1/2 activation were examined in the A549 lung adenocarcinoma cell line. […] Inhibition experiments with a range of pepducin concentrations (0.1-3 μM) were conducted. […] The […] (SEQ ID NO:30) peptide gave a rapid and transient ERK1/2 phosphorylation signal that peaked at 5-15 min after stimulation. […] To determine the specificity of the PAR1 pepducin inhibitors, their effects on the closely related PAR2 and PAR4 receptors were also tested.

[2] = system: A549, HOP62, and HOP92 lung carcinoma cell lines; experiment: Cytotoxicity/cell viability of lung carcinoma cells (MIT assay); format: cell-based, human; settings: 3-day period
[3] = system: A549 xenografts; format: in vivo, mouse
Description: FIG. 13 illustrates that monotherapy with PAR1-i3 pepducins inhibits tumor progression of A549 xenografts. (A) and (B): A549 mice treated with vehicle, P1pal-7, P1pal-i1-11, P1pal-10S, X1/2-i1, X1/2-i3, or Avastin. Each time point represents the mean±SE. (C): Final tumor volume at the completion of the experiment was calculated as a percentage of untreated vehicle control. (D): Serum-starved A549 adenocarcinoma cells were pretreated with P1pal-7, P1pal-10S, P1pal-i1-11, vehicle, or PD98059 and stimulated with thrombin. VEGF production was assessed by enzyme-linked immunosorbent assay. Data are expressed as mean±SD (*P<0.05, **P<0.01).
PAR1 expression level is correlated with reduced survival of patients with NSCLC. To define the relative importance of PAR1 in lung tumor progression, in vivo mouse models were used. […] An A549 lung adenocarcinoma xenograft model in nude mice was used to evaluate monotherapy with P1pal-7, P1pal-10S, P1pal-i1-11, or the VEGF antagonist Avastin.

[4] = molecular target: T1, PAR1; experiment: PAR1-dependent human platelet aggregation (SFLLRN); format: cell-based; set-up: endogenous in cells; settings: 2.5 μM SFLLRN; P2pal-18S 1 μM or 5 μM
Description: FIG. 5 illustrates: (A) PAR1-dependent human platelet aggregation is not affected by P2pal-18S. Gel-filtered platelets were incubated with 2.5 μM SFLLRN (SEQ ID NO:1) to induce PAR1-dependent platelet aggregation. […] Error bars represent mean±SD. […] Cells were lifted and incubated in PBS/0.4% BSA for 30 min at 25° C. with 0.5-30 μM P2pal-18S or P2pal-14GQ. Propidium iodide (PI) was added directly to the cells and after a 15 min incubation, PI uptake was quantified by flow cytometry. […] Error bars represent ±SEM.

[5] = molecular target: T1, PAR1; experiment: Human neutrophil chemotaxis to TFLLRN; format: cell-based; set-up: endogenous in cells; settings: 10 μM TFLLRN
Description: (A) Human neutrophils (n=4 normal volunteers) were analyzed for surface expression of human PAR1, PAR2, and PAR4 by flow cytometry with PAR-specific antibodies. […] Chemotaxis index is the ratio of directed versus random migration over 30 min through a 5-μm pore filter.
P2pal-18S had no effect on PAR1-dependent platelet aggregation (FIG. 5A). Neither P2pal-18S nor P2pal-14GQ caused membrane disruption or apoptosis as assessed by propidium iodide uptake in SW620 cells with up to 30 μM concentrations of pepducin (FIG. 5B).

[6] = molecular target: PAR2 (Homo sapiens, UniProt P55085); experiment: Agonist | (%)^†; set-up: SW620 colon adenocarcinoma cells that endogenously express PAR2; endogenous in cells; host or cells: SW620 (in A7 the SW620 cells were additionally stably transfected with PAR1); settings: 4 µM
Chain of PAR2 (P55085 26-397 limits assumed): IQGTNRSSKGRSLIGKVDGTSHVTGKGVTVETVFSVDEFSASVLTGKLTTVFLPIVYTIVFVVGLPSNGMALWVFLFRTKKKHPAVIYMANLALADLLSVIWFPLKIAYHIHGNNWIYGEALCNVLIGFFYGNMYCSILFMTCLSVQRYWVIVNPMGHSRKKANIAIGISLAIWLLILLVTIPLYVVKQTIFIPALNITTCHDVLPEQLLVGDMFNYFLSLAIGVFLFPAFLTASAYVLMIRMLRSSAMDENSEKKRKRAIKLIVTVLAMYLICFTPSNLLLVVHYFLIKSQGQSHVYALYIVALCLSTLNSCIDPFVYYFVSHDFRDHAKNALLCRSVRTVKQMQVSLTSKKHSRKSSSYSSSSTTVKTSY
Description: (A) Agonist and antagonist activity of third intracellular (i3) loop PAR2 pepducins (structure shown on top) using calcium flux assays with SW620 colon adenocarcinoma cells that endogenously express PAR2. Each column of three calcium flux traces corresponds to the i3 pepducin sequence shown above. The top row is the agonist activity of 3-4 μM pepducin and the middle row is the agonist activity of 14-15 μM pepducin. […] Final concentration of DMSO vehicle was 0.2%. […] (C) Agonist activity for each pepducin from (A) is reported as initial velocity of calcium flux at 4 μM pepducin (†), or at 14-15 μM pepducin (‡).

Effect on thrombin-induced ERK1/2 phosphorylation [1]	Effect on PAR1-dependent platelet aggregation [4]	Antagonist activity, neutrophil chemotaxis, PAR1 [5]	Agonist | (%)^† [6] [%]	SMILES	Sensitivity of A549 cells (cytotoxicity) [2]	Early tumor growth blockade ([3]; by day 20)	Inhibition of tumor progression/growth (final tumor volume vs vehicle) ([3]; monotherapy, nude mice)
no effect				CCCCCCCCCCCCCCCC(=O)N[C@H](C(=O)N[C@@H](CC(C)C)C(=O)N[C@@H](CCCCN)C(=O)N[C@@H](CCSC)C(=O)N[C@@H](CCCCN)C(=O)N[C@H](C(=O)N[C@@H](CCCCN)C(=O)N[C@@H](CCCCN)C(=O)N1CCC[C@H]1C(=O)N[C@@H](C)C(=O)N[C@H](C(N)=O)C(C)C)C(C)C)[C@@H](C)CC [P1pal-i1-11] (Palmitoyl-ILKMKVKKPAV-NH2)	less sensitive	significant blockade of tumor growth	did not inhibit the long-term growth
	had no effect	no antagonist activity	3	CCCCCCCCCCCCCCCC(=O)N[C@@H](CCCNC(=N)N)C(=O)N[C@@H](CO)C(=O)N[C@@H](CO)C(=O)N[C@@H](C)C(=O)N[C@@H](CCSC)C(=O)N[C@@H](CC(=O)O)C(=O)N[C@@H](CCC(=O)O)C(=O)N[C@@H](CC(N)=O)C(=O)N[C@@H](CO)C(=O)N[C@@H](CCC(=O)O)C(=O)N[C@@H](CCCCN)C(=O)N[C@@H](CCCCN)C(=O)N[C@@H](CCCNC(=N)N)C(=O)N[C@@H](CCCCN)C(=O)N[C@@H](CO)C(=O)N[C@@H](C)C(=O)N[C@H](C(=O)N[C@@H](CCCCN)C(N)=O)[C@@H](C)CC [P2pal-18S]			
